Results reported in article PMC10412636, “An analysis of interactions between three structurally diverse anthocyanidins, as well as their glucosides, and model biological membranes, albumin, and plasmid DNA” (Scientific Reports, 2023).

Tests used:
[1] = target: human serum albumin (HSA) (Homo sapiens, UniProt P02768); assay: Quenching of natural fluorescence of human serum albumin; type: binding; conditions: HSA […] 10^–5 M, 37 °C
Description: The phenomenon of quenching the natural fluorescence of human serum albumin (HSA) was used to investigate the potential interaction of anthocyanins with this protein. […] Anthocyanins with concentrations ranging from 1 to 30 µM were added to HSA dissolved in phosphate buffer (1.5 × 10^–5 M) and then incubated at 37 °C for 20 min. Emission spectra were performed on a fluorimeter Cary Eclipse (Varian, San Diego, USA) at 37 °C. HSA fluorescence was excited with a wavelength of λ = 280 nm, the emission was measured in the range from 286 to 460 nm, and the fluorescence intensity was read at 345 nm where the emission maximum of HSA was located.
The Stern–Volmer equation was used to thoroughly describe the quenching mechanism of natural fluorescence and to determine the bindings parameters of HSA: anthocyanin complexes:4 F0/F=1+Kqτ0Q=1+KSV[Q] where F0—fluorescence intensity in the absence of anthocyanins (control sample), F—fluorescence intensity in the presence of anthocyanins, KSV—Stern–Volmer quenching constant (KSV = Kq·τ0), [Q]—concentration of quencher (tested compound), Kq—bimolecular quenching constant, τ0—a lifetime of the fluorophore in the absence of quencher the fluorescence lifetime of a biopolymer is calculated as 5 × 10^–9 s[51].
The apparent binding constants (Kb) and the number of binding sites (n) can be calculated using the following equation:5 log(F0-F/F]=logKb+nlog[Q]
F0 and F are the fluorescence intensities before and after the addition of the quencher. From the linear plot of log (F0 − F)/F versus log [Q], the value of Kb was obtained from the intercept.

[2] = TMA-DPH probe fluorescence anisotropy in MM liposomes; conditions: negative = increase in anisotropy
Description: (§1) Two types of liposomes were used to study interactions with biological membranes: liposomes mimicking the composition of cancer cell membranes (mimic membrane liposome—MM) and liposomes formed from lipids extracted from human blood erythrocyte membranes (red blood cell membrane liposome—RBCM). […] Both lipids, dissolved in chloroform (MM liposome) and n-decane (RBCM liposome), were evaporated under a nitrogen atmosphere, and then dried in a desiccator for 90 min under a vacuum. The obtained dry lipid film was hydrated in phosphate buffer, pH 7.4, obtaining a concentration of 0.1 mg/ml, and then vortexed for one minute until a homogeneous, milky suspension was observed. The mixture was sonicated (Sonic, Milano, Italia) for 15 min keeping the sample in a bath of ice water, thus providing a cooling temperature of 0 °C. The suspension was then processed (extrusion) through polycarbonate filters with pore diameters of 100 and 200 nm using a Lipex extruder (Evonik). Liposomes, which had been prepared according to this procedure, was used in fluorimetric studies.
(§2) To investigate these properties three fluorescent probes were used: MC540, TMA-DPH, and DPH. MC540 localizes to the outer, hydrophilic part of the membrane, within the region of the glycerol skeleton[44]. Changes in the fluorescence intensity of this probe were formulated as the relative change in intensity to the control as a function of anthocyanins concentration. The TMA-DPH and DPH probes are supposed to locate nearer to the interface and in the hydrophobic region, respectively[45]. The measurement of changes in the anisotropy of the TMA-DPH and DPH probes allowed us to reflect the mobility of the fluorescent probes in the membrane, and therefore to determine the fluidity of the bilayer[46]. Fluorescence anisotropy was calculated using the formula[47]:1 A=I‖-GI⊥/I‖+2GI⊥ where I‖ and I⊥ are the intensity of fluorescence in parallel and perpendicular directions, to the plane of polarization of the excitation wave, respectively. G is an apparatus constant that depends on the emission wavelength.
(§3) Liposomes (the concentration of lipids in the sample was 0.1 mg/ml) were incubated for 30 min with the appropriate probe (dissolved in DMF, 1 µM concentration), and then the tested anthocyanins were added (final concentration of 1 to 30 µM). The control sample consisted of liposomes and a fluorescent probe. Fluorescence was measured on a fluorimeter (Cary Eclipse, Varian, San Diego, USA) at 37 °C. The excitation wavelengths λex and emission wavelengths λem respectively: MC540—λexc = 540 nm, λem = 590 nm; DPH—λexc = 360 nm, λem = 425 nm. nm; TMA-DPH—λexc = 340 nm, λem = 430 nm.

[3] = DPH fluorescence quenching, dissociation constant with MM liposome membrane; type: binding; conditions: 37 °C
Description: as §1
(§4) The phenomenon of quenching the fluorescence of the DPH probe by biologically active substances enabled us to evaluate the partition coefficient (Kd, dissociation constant) of anthocyanins with both MM and RBCM liposome membranes. For this purpose, changes in the fluorescence intensity of this probe were checked and the coefficient was calculated using the equation[48]:2 1/F0/F-1=Kd/[liposomes]×1/[anthocyanins]+1/liposomes where F0—fluorescence intensity in the absence of anthocyanins (control sample), F—fluorescence intensity in the presence of anthocyanins, [liposomes]—concentration of liposomes in mg/ml, [anthocyanins]—concentration of anthocyanins tested mg/ml.
as §3

[4] = DPH fluorescence quenching, dissociation constant with RBCM liposome membrane; type: binding, human; conditions: 37 °C
Description: as §1, §4, §3

[5] = tested on: pHbApr-1-Neo plasmid DNA; assay: TCSPC-FCS of PicoGreen-labelled plasmid DNA with anthocyanins; type: binding
Description: To evaluate the biological interaction with DNA molecules the anthocyanins were initially dissolved in ETOH (1 mM). […] Mixing of such solutions with the aqueous DNA solutions used in the studies never exceeded 1% concentration ETOH (v/v) in the final solution. The DNA plasmid was labelled by PicoGreen (CPicoGreen/CDNAbp = 0.02)[52]. The pHbApr-1-Neo plasmid (10 kbp and contour length 3.4 µm) was a generous gift from the laboratory of Prof. Maciej Ugorski (Department of Biochemistry and Molecular Biology, Wrocław University of Environmental and Life Sciences Wroclaw, Poland). PicoGreen-labelled DNA samples mixed with the appropriate amount of anthocyanins were left overnight and then measured. The increasing concentration of anthocyanins in the tested samples was expressed as the ratio of the molar concentration of anthocyanins per molar concentration of DNA base pairs in a given sample (comp/bp). The 100 µl samples were measured in Ibidi 8-well chambers. Each point on the graph is a single sample (average of 10 measurements). All measurements were performed at room temperature (25 °C). Time-correlated single-photon counting fluorescence correlation spectroscopy (TCSPC-FCS) was used to study the interaction of plasmid DNA at the single molecule level with all tested anthocyanins. […] Low power of 1uW (at the back aperture of the objective) was chosen to minimize photobleaching and saturation. In the detection plane, a pinhole (50um in diameter) was used and the signal was collected by a single photon avalanche diode (SPAD, Microphoton Devices, Bolzano, Italy). Photon arrival times were stored using fast electronics (Picoharp 300, PicoQuant) in time-tagged time-resolved recording mode. Two independent times were assigned to each detected photon: (1) a time after the beginning of the measurement and (2) a time after the previous laser pulse. The FCS data analysis was done using home-built routines (DevC++, Bloodshed Software and OriginPro70, OriginLab Corporation). The TCSPC data analysis was performed using SymPhoTime software (PicoQuant). Further details of the data evaluation are given elsewhere.

[6] = DPH probe fluorescence anisotropy in MM liposomes; conditions: MM, negative = increase in anisotropy
Description: as §1, §2, §3

[7] = TMA-DPH probe fluorescence anisotropy in RBCM liposomes; design: species or system human; conditions: negative = increase in anisotropy
Description: Two types of liposomes were used to study interactions with biological membranes: liposomes mimicking the composition of cancer cell membranes (mimic membrane liposome—MM) and liposomes formed from lipids extracted from human blood erythrocyte membranes (red blood cell membrane liposome—RBCM). […] The RBCM liposome was according to the methodology described previously[42] with minor modifications[43]. Both lipids, dissolved in chloroform (MM liposome) and n-decane (RBCM liposome), were evaporated under a nitrogen atmosphere, and then dried in a desiccator for 90 min under a vacuum. The obtained dry lipid film was hydrated in phosphate buffer, pH 7.4, obtaining a concentration of 0.1 mg/ml, and then vortexed for one minute until a homogeneous, milky suspension was observed. The mixture was sonicated (Sonic, Milano, Italia) for 15 min keeping the sample in a bath of ice water, thus providing a cooling temperature of 0 °C. The suspension was then processed (extrusion) through polycarbonate filters with pore diameters of 100 and 200 nm using a Lipex extruder (Evonik). Liposomes, which had been prepared according to this procedure, was used in fluorimetric studies.
To investigate these properties three fluorescent probes were used: MC540, TMA-DPH, and DPH. MC540 localizes to the outer, hydrophilic part of the membrane, within the region of the glycerol skeleton[44]. […] The TMA-DPH and DPH probes are supposed to locate nearer to the interface and in the hydrophobic region, respectively[45]. The measurement of changes in the anisotropy of the TMA-DPH and DPH probes allowed us to reflect the mobility of the fluorescent probes in the membrane, and therefore to determine the fluidity of the bilayer[46]. Fluorescence anisotropy was calculated using the formula[47]:1 A=I‖-GI⊥/I‖+2GI⊥ where I‖ and I⊥ are the intensity of fluorescence in parallel and perpendicular directions, to the plane of polarization of the excitation wave, respectively. G is an apparatus constant that depends on the emission wavelength.
as §3

[8] = MC540 probe fluorescence intensity in MM liposomes; conditions: 37 °C, positive = decrease
Description: as §1, §2, §3

[9] = DPH probe fluorescence anisotropy in RBCM liposomes; design: species or system human; conditions: RBCM, negative = increase in anisotropy
Description: as §1, §2, §3

[10] = MC540 probe fluorescence intensity in RBCM liposomes; design: species or system human; conditions: 37 °C, positive = decrease
Description: as §1, §2, §3

[11] = 30 µM, listed as petunidin glucoside

Sequence of human serum albumin (HSA) (P02768 25-609): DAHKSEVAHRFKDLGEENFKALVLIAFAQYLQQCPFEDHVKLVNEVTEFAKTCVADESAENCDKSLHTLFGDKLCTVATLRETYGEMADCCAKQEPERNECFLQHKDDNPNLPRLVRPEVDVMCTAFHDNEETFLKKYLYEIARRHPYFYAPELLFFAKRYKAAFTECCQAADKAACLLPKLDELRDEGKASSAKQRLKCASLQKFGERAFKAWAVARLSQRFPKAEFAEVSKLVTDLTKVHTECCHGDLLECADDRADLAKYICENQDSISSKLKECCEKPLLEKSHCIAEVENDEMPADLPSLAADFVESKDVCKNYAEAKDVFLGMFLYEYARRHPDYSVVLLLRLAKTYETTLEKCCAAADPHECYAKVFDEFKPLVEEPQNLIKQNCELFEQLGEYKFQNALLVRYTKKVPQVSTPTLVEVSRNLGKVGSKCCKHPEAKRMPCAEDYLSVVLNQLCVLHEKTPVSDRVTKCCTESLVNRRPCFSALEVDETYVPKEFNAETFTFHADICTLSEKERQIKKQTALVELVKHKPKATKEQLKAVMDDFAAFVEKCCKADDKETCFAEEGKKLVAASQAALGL

Structure (SMILES) | Stern Volmer constant KSV [1] | number of binding sites n [1] | Changes in TMA-DPH anisotropy relative to the control ([2]; 1 µM) | Changes in TMA-DPH anisotropy relative to the control ([2]; 5 µM) | Changes in TMA-DPH anisotropy relative to the control ([2]; 10 µM) | Changes in TMA-DPH anisotropy relative to the control ([2]; 20 µM) | Changes in TMA-DPH anisotropy relative to the control ([2]; 30 µM) | Kd [3] | Kd [4] | Changes in DPH anisotropy relative to the control ([6]; 1 µM) | Changes in DPH anisotropy relative to the control ([6]; 5 µM) | Changes in DPH anisotropy relative to the control ([6]; 10 µM) | Changes in DPH anisotropy relative to the control ([6]; 20 µM) | Changes in DPH anisotropy relative to the control ([6]; 30 µM) | Changes in TMA-DPH anisotropy relative to the control ([7]; 1 µM) | Changes in TMA-DPH anisotropy relative to the control ([7]; 5 µM) | Changes in TMA-DPH anisotropy relative to the control ([7]; 10 µM) | Changes in TMA-DPH anisotropy relative to the control ([7]; 20 µM) | Changes in TMA-DPH anisotropy relative to the control ([7]; 30 µM) | Changes in MC540 fluorescence intensity relative to the control ([8]; 1 µM) | other results
COc1cc(-c2[o+]c3cc(O)cc(O)c3cc2OC2OC(CO)C(O)C(O)C2O)ccc1O (stereo not shown) [Pn 3-glc, Peonidin 3-O-glucoside] | 11.93 ± 1.61 × 10^3 M^−1 | 0.91 ± 0.09 | -3.26±0.11% | -0.96±0.03% | 0.69±0.02% | 0.19±0.003% | 1.63±0.05% | 114 ± 17.2 µM | 28.2 ± 5.11 µM | -7.68±0.11% | -6.50±0.15% | -6.27±0.08% | -3.12±0.03% | -0.39±0.01% | -2.75±0.12% | -0.59±0.03% | -0.56±0.02% | -0.61±0.03% | 0.65±0.04% | 6.40±0.34% | lifetime (LT) ([5]; 0 < comp/bp < 1, decrease from 4.25 ns): about 3.25 ns; lifetime (LT) ([5]; comp/bp from 1 to 10, minor further decrease): about 2.75 ns; decrease in the diffusion time (tD) ([5]; tested range of comp/bp from 0 to 10): 2.5 fold; Changes in MC540 fluorescence intensity relative to the control ([8]; 5 µM): 10.52±0.67%; Changes in MC540 fluorescence intensity relative to the control ([8]; 10 µM): 14.98±0.94%; Changes in MC540 fluorescence intensity relative to the control ([8]; 20 µM): 24.13±1.45%; Changes in MC540 fluorescence intensity relative to the control ([8]; 30 µM): 35.68±1.88%; Changes in DPH anisotropy relative to the control ([9]; 1 µM): -5.23±0.04%; Changes in DPH anisotropy relative to the control ([9]; 5 µM): -2.72±0.08%; Changes in DPH anisotropy relative to the control ([9]; 10 µM): -2.02±0.05%; Changes in DPH anisotropy relative to the control ([9]; 20 µM): -0.79±0.03%; Changes in DPH anisotropy relative to the control ([9]; 30 µM): -0.03±0.002%; Changes in MC540 fluorescence intensity relative to the control ([10]; 1 µM): 16.40±0.66%; Changes in MC540 fluorescence intensity relative to the control ([10]; 5 µM): 20.98±1.80%; Changes in MC540 fluorescence intensity relative to the control ([10]; 10 µM): 29.53±2.47%; Changes in MC540 fluorescence intensity relative to the control ([10]; 20 µM): 38.00±0.57%; Changes in MC540 fluorescence intensity relative to the control ([10]; 30 µM): 50.34±2.93%
COc1cc(-c2[o+]c3cc(O)cc(O)c3cc2OC2OC(CO)C(O)C(O)C2O)cc(O)c1O (stereo not shown) [Pt 3-glc, Petunidin 3-O-glucoside] | 5.50 ± 0.94 × 10^3 M^−1 | 0.92 ± 0.04 | -3.47±0.16% | -2.18±0.02% | -2.04±0.07% | 0.91±0.03% | -2.20±0.06% | 29.3 ± 5.43 µM | 46.9 ± 6.8 µM | -5.67±0.28% | -9.84±0.13% | -9.71±0.15% | -7.55±0.12% | -6.11±0.03% | -2.24±0.09% | -0.99±0.03% | 1.63±0.07% | -0.47±0.02% | 3.60±0.11% | 6.95±0.35% | decrease in the diffusion time (tD) ([5]; comp/bp = 1, from about 70 ms): ~20 fold; lifetime (LT) ([5]; comp/bp = 1, plasmid alone 4.25 ns): about 3.0 ns; Particle Number (PN) ([5]; comp/bp = 1, plasmid alone 5): about 0.7; diffusion time (tD) ([5]; comp/bp = 1, plasmid alone about 70 ms): 3.5 ms; Changes in MC540 fluorescence intensity relative to the control ([8]; 5 µM): 10.52±0.57%; Changes in MC540 fluorescence intensity relative to the control ([8]; 10 µM): 17.35±0.69%; Changes in MC540 fluorescence intensity relative to the control ([8]; 20 µM): 31.49±1.78%; Changes in MC540 fluorescence intensity relative to the control ([8]; 30 µM): 42.63±0.74%; Changes in MC540 fluorescence intensity relative to the control [8, 11]: 42.6 ± 0.7%; Changes in DPH anisotropy relative to the control ([9]; 1 µM): -7.54±0.13%; Changes in DPH anisotropy relative to the control ([9]; 5 µM): -7.10±0.35%; Changes in DPH anisotropy relative to the control ([9]; 10 µM): -7.11±0.42%; Changes in DPH anisotropy relative to the control ([9]; 20 µM): -7.30±0.53%; Changes in DPH anisotropy relative to the control ([9]; 30 µM): -7.24±0.48%; Changes in MC540 fluorescence intensity relative to the control ([10]; 1 µM): 13.68±0.65%; Changes in MC540 fluorescence intensity relative to the control ([10]; 10 µM): 28.28±3.62%; Changes in MC540 fluorescence intensity relative to the control ([10]; 20 µM): 41.75±7.08%; Changes in MC540 fluorescence intensity relative to the control ([10]; 30 µM): 58.91±14.03%; Changes in MC540 fluorescence intensity relative to the control [10, 11]: 58.9 ± 14.0%
